The source of these data is patent publication US20260315497A1, “COMPOSITION FOR TREATING EPILEPSY” (CanaQuest Medical Corp., priority 2022, published 2026).

What all share (type): in vivo, Male, CF-1 male mice
Series [1] is described as follows: MES test in mice, Further Tests. As to conditions: Mus musculus, ip, MES 50 mA, 60 Hz, 0.2 sec, i.p., 2 hours after injection, Litchfield and Wilcoxon method, read-out: ED50 (effective dose to protect 50% of mice). The source says: (§1) Subjects Male, CF-1 male mice (18-25 grams) were used as subjects. They were housed under standard conditions in a vivarium at the University of Toronto (CCBR). They were given 2 days (minimum) to acclimate before testing began.
(§2) Drugs and Doses CBD was provided in the form of: 1) standard CBD isolate, 2) CBD in DHA/EPA without emulsification (2% DHA, 2% EPA, 12% “stabilizer”), 3) CBD emulsified in DHA/EPA to produce larger particles (66.2 nm diameter) and 4) CBD emulsified in DHA/EPA to produce smaller particles (32.7 nm diameter). Drugs were injected intraperitoneally at a constant volume, and were diluted as necessary using a vehicle of 1:1:18 (Cremophor:alcohol:saline). Dilution is necessary to achieve volumes large enough for injection. Doses of CBD ranged from 0 (vehicle) to 400 mg/kg. As in our past studies, the MES stimulus was given 2 hours after injection. Dose-response curves were done for each formulation.
MES Procedure The MES stimulus consisted of 0.2 sec of 60 Hz since-wave current administered at an intensity of 50 mA via corneal electrodes. The percentage of mice protected against the tonic hindlimb extension component of the resulting seizure was measured. […]
(§3) Toxicity Assessment Ataxia (impaired movement) was assessed using the Loscher scale and was done just before the MES test. Loscher scores of 2-5 were scored a “toxicity present”. […]

Series [2] can be described thus: Toxicity Assessment: ataxia, Loscher scale, Further Tests.
Source text: as §1, §2, §3
The Litchfield/Wilcoxon method could not be applied to the toxicity data for technical reasons, so TD50s were calculated from line plots.

Series [3] in a line: Maximal Electroshock Seizure (MES) Model in mice, Initial Tests. Particulars: Mus musculus, ip, MES 50 mA, 60 Hz, 0.2 sec, i.p., 2 hours after injection, 10 mice per dose, read-out: ED50 (effective dose to protect 50% of mice). Here is the method:
The composition was tested using the Maximal Electroshock Seizure (MES) Model. This is an established procedure to provide an indication of a compound's ability to prevent seizure spread.
(§4) Subjects Male, CF-1 male mice (18-25 grams) were used as subjects. They were housed under standard conditions in the vivarium at the CCBR. They were given 2 days (minimum) to acclimate before testing began.
(§5) Drugs and Doses CBD was provided in pure form and in the described composition. Two four-point dose-response curves were done, one for the pure form CBD and one for the described composition. Ten mice were tested at each dose. (Mice were not re-used.) Compounds were injected intraperitoneally. Testing was done 2 hours after injection. Drugs were injected at a constant volume, and were diluted as necessary using a vehicle of 1:1:18 (Cremophor:alcohol:saline). Dilution is necessary to achieve volumes large enough for injection. Doses were: 0 (vehicle), 25, 50, 100, 200 mg/kg. A 400 mg/kg dose was added later to extend the standard CBD curve.
MES Procedure The MES stimulus consisted of 0.2 sec of 60 Hz since-wave current administered at an intensity of 50 mA via corneal electrodes. The percentage of mice protected against the tonic hindlimb extension component of the resulting seizure was measured. Mice were then euthanized following the procedure.
(The maximal electroshock test induces tonic seizures with an electrical stimulus.)

The nature of series [4]: Toxicity Assessment: ataxia, Loscher scale, Initial Tests. As to conditions: just before the MES test, i.p., standard CBD at any dose. How it is done:
as §4, §5
Toxicity Assessment Ataxia (impaired movement) was assessed using the Loscher scale and was done just before the MES test.

Where only a bound is given, the exact number is not on record here.

Regarding `C=C(C)[C@@H]1CCC(C)=C[C@H]1c1c(O)cc(CCCCC)cc1O` [regular CBD, cannabidiol], the ED50 in series [1] came to 146 mg/kg; in series [3], 162 mg/kg. Besides, the TD25 in series [2] (Loscher scores of 2-5 = toxicity present, i.p., highest dose tested) amounted to 400 mg/kg. Further, the TD50 at 2 h in series [2] (mouse, in vivo, ip, speculated to be higher than the highest dose tested) was > 400 mg/kg. The signs of toxicity entry in series [4] was “No mice showed any signs of toxicity”.

As a reminder, the ED50 is the midpoint of the dose-response relation. Usually TD50 stands for the 50% point of the dose-response relation for the toxic effect studied. Low values mean harm at a small dose, high ones harm only at a large dose.
